In publication PMC8672067, “Inhibitors of the Bub1 spindle assembly checkpoint kinase: synthesis of BAY-320 and comparison with 2OH-BNPP1” (Royal Society Open Science, 2021):
pIC50: −log10 of the molar value.

Biological target: T1, Bub1 (Homo sapiens, UniProt O43683)
T1 construct: full-length Bub1 with an N-terminal GFP tag (GFP-Bub1), purified from HEK-293 cells on beads
Assay: in vitro kinase assay with purified GFP-Bub1 and H2A, H2ApT120 immunoblot, […] ATP
Type: biochemical

T1 sequence (O43683 whole entry): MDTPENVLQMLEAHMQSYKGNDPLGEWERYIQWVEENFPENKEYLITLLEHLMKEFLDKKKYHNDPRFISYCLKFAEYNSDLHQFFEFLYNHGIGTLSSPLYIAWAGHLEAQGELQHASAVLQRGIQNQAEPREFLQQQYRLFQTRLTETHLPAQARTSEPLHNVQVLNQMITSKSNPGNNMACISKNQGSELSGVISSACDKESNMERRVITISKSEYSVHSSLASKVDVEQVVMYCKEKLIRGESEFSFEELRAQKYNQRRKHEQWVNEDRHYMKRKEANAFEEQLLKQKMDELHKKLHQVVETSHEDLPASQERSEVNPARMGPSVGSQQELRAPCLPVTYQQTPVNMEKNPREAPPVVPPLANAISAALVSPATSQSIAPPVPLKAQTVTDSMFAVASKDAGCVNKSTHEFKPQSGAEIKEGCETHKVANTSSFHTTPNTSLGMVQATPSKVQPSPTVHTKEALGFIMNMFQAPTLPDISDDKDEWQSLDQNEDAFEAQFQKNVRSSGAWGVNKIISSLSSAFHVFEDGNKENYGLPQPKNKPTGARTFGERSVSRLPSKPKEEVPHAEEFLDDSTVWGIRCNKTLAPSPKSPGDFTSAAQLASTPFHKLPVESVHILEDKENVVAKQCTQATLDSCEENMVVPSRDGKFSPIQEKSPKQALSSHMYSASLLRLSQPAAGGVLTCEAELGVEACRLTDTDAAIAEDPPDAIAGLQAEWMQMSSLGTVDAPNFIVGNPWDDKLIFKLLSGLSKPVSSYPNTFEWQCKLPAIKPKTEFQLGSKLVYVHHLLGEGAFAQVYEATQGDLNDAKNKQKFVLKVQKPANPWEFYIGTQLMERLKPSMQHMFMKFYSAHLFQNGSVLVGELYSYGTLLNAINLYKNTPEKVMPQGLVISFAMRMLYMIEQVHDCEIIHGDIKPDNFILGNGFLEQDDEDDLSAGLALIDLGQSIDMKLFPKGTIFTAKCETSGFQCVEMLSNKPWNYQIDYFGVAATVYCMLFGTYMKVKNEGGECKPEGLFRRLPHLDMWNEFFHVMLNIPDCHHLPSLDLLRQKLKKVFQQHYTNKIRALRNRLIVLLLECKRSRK

| SMILES | pIC50 |
| --- | --- |
| CC(C)(C)n1nc(Cc2ccccc2O)c2c(N)ncnc21 [2OH-BNPP1] | 6.22 |
| CCOc1cc(F)c(Cn2nc(-c3ncc(OC)c(Nc4ccncc4)n3)c(C)c2C2CC2)c(F)c1 [compound 11, 2-[5-Cyclopropyl-1-(4-ethoxy-2,6-difluorobenzyl)-4-methyl-1H-pyrazol-3-yl]-5-methoxy-N-(pyridine-4-yl)pyrimidin-4-amine] | 6.25 |
